Experiments:
[1] = target: EV-A71 3C^pro (Human enterovirus 71 (strain BRCR), UniProt Q66478); details: read-out: EV-A71 3Cpro; inhibitor
[2] = target: T1, CVB3 3C^pro (Coxsackievirus B3, UniProt Q5UEA2); assay: biochemical
[3] = target: HCoV-NL63 M^pro (Human coronavirus NL63, UniProt P0C6X5); assay: FRET peptide cleavage assay; assay type: biochemical
[4] = target: T1, CVB3 3C^pro; assay: FRET peptide cleavage assay; assay type: biochemical
[5] = tested on: CVB3 (Nancy); assay: microbe, parasite or virus in culture; set-up: species or system Huh-T7; details: Enterovirus B, CVB3, read-out: CVB3 replicon *
[6] = tested on: EV-A71; assay: microbe, parasite or virus in culture; set-up: species or system Huh-T7; details: Enterovirus A, EVA71, read-out: EV-A71 replicon *

Chain of EV-A71 3C^pro (Q66478 1549-1731): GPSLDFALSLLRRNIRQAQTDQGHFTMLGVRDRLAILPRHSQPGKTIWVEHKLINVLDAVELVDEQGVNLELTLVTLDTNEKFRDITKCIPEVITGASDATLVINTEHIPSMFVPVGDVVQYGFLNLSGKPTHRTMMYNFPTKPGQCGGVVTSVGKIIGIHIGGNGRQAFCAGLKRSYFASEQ
Chain of HCoV-NL63 M^pro (P0C6X5 2940-3242): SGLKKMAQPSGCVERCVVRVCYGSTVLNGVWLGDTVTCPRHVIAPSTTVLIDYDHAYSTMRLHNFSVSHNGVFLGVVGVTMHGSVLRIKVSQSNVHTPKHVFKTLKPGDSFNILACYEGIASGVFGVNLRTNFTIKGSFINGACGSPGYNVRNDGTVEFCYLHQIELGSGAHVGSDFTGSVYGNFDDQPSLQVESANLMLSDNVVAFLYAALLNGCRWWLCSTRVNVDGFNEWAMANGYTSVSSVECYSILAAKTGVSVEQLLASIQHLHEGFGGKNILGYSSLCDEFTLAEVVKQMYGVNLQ

SMILES	IC50 [1] [µM]	IC50 [2] [µM]	IC50 [3] [µM]	IC50 [4] [µM]	EC50 [5] [µM]	EC50 [6] [µM]
CC(C)CNC(=O)C(=O)[C@H](C[C@@H]1CCNC1=O)NC(=O)[C@H](CC(C)C)NC(=O)/C=C/c1ccccc1 [11d]	17.7 ± 8.78	6.5 ± 0.58	–	–	–	–
C#CC[C@H](NC(=O)/C=C/c1ccccc1)C(=O)N[C@@H](C[C@@H]1CCNC1=O)C(=O)C(=O)NCc1ccccc1 [11p, (S)-N-((S)-4-(benzylamino)-3,4-dioxo-1-((S)-2-oxopyrrolidin-3-yl)butan-2-yl)-2-cinnamamidopent-4-ynamide]	–	–	17.4 ± 3.97	8.93 ± 2.39	–	–
CC(C)(C)NC(=O)C(=O)[C@H](C[C@@H]1CCNC1=O)NC(=O)[C@H](Cc1ccccc1)NC(=O)/C=C/c1ccccc1 [11c]	19 ± 5.79	9.86 ± 2.68	–	–	–	–
O=C(NCc1ccccc1)C(=O)[C@H](C[C@@H]1CCNC1=O)NC(=O)[C@H](Cc1ccccc1)NC(=O)c1ccc2c(c1)OCCO2 [11h]	4.75 ± 2.73	3.66 ± 0.79	–	–	–	–
O=C(/C=C/c1ccccc1)N[C@@H](Cc1ccccc1)C(=O)N[C@@H](C[C@@H]1CCNC1=O)C(=O)C(=O)NCc1ccccc1 [11a, (S)-N-benzyl-3-((S)-2-cinnamamido-3-phenylpropanamido)-2-oxo-4-((S)-2-oxopyrrolidin-3-yl)butanamide]	–	–	> 50	6.56 ± 3.1	–	–
O=C(NCc1ccccc1)C(=O)[C@H](C[C@@H]1CCNC1=O)NC(=O)[C@H](Cc1ccccc1)NC(=O)c1cccc2c1OCCO2 [11i]	9.74 ± 3.88	4.82 ± 1.17	–	–	–	–
O=C(/C=C/c1ccccc1)N[C@@H](CC1CCCC1)C(=O)N[C@@H](C[C@@H]1CCNC1=O)C(=O)C(=O)NCc1ccccc1 [11u, (S)-N-benzyl-3-((S)-2-cinnamamido-3-cyclopentylpropanamido)-2-oxo-4-((S)-2-oxopyrrolidin-3-yl)butanamide]	–	–	5.41 ± 2.31	1.93 ± 0.43	4.9	3.65
O=C(/C=C/c1ccccc1)N[C@@H](Cc1ccc(F)cc1)C(=O)N[C@@H](C[C@@H]1CCNC1=O)C(=O)C(=O)NCc1ccccc1 [11m, (S)-N-benzyl-3-((S)-2-cinnamamido-3-(4-fluorophenyl)propanamido)-2-oxo-4-((S)-2-oxopyrrolidin-3-yl)butanamide]	–	–	> 50	8.69 ± 1.28	–	–
CCCCNC(=O)C(=O)[C@H](C[C@@H]1CCNC1=O)NC(=O)[C@H](Cc1ccccc1)NC(=O)/C=C/c1ccccc1 [11b]	2.38 ± 0.58	1 ± 0.35	–	–	–	–
O=C(NCc1ccccc1)C(=O)[C@H](C[C@@H]1CCNC1=O)NC(=O)[C@H](Cc1ccccc1)NC(=O)c1cc2ccccc2s1 [11k]	> 50	18.6 ± 0.58	–	–	–	–
CCCC[C@H](NC(=O)/C=C/c1ccccc1)C(=O)N[C@@H](C[C@@H]1CCNC1=O)C(=O)C(=O)NCc1ccccc1 [11o, (S)-N-((S)-4-(benzylamino)-3,4-dioxo-1-((S)-2-oxopyrrolidin-3-yl)butan-2-yl)-2-cinnamamidohexanamide]	–	–	> 50	5.2 ± 0.28	–	–
O=C(/C=C/c1ccccc1)N[C@H](C(=O)N[C@@H](C[C@@H]1CCNC1=O)C(=O)C(=O)NCc1ccccc1)C1CC1 [11q, (S)-N-benzyl-3-((S)-2-cinnamamido-2-cyclopropylacetamido)-2-oxo-4-((S)-2-oxopyrrolidin-3-yl)butanamide]	–	–	11.5 ± 5.05	15.4 ± 4.12	–	–
O=C(/C=C/c1ccccc1)N[C@@H](CC1CCCCC1)C(=O)N[C@@H](C[C@@H]1CCNC1=O)C(=O)C(=O)NCc1ccccc1 [11r, (S)-N-benzyl-3-((S)-2-cinnamamido-3-cyclohexylpropanamido)-2-oxo-4-((S)-2-oxopyrrolidin-3-yl)butanamide]	–	–	12.3 ± 3.56	0.95 ± 0.15	0.45	0.85
O=C(/C=C/c1ccccc1)N[C@@H](CC1CCC1)C(=O)N[C@@H](C[C@@H]1CCNC1=O)C(=O)C(=O)NCc1ccccc1 [11t, (S)-N-benzyl-3-((S)-2-cinnamamido-3-cyclobutylpropanamido)-2-oxo-4-((S)-2-oxopyrrolidin-3-yl)butanamide]	–	–	3.43 ± 2.45	4.78 ± 1.13	2.2	–
O=C(NCc1ccccc1)C(=O)[C@H](C[C@@H]1CCNC1=O)NC(=O)[C@H](Cc1ccccc1)NC(=O)c1cc2ccccc2o1 [11j]	11.3 ± 6.52	9.19 ± 2.99	–	–	–	–
CC(C)(C)OC(=O)N[C@@H](C[C@@H]1CCNC1=O)C(=O)C(=O)NCc1ccccc1 [11f, tert-Butyl ((S)-4-(benzylamino)-3,4-dioxo-1-((S)-2-oxopyrrolidin-3-yl)butan-2-yl)carbamate]	–	–	> 50	> 50	–	–
O=C(NCc1ccccc1)C(=O)[C@H](C[C@@H]1CCNC1=O)NC(=O)[C@H](Cc1ccccc1)NC(=O)c1cn2cc(Br)ccc2n1 [11l]	> 50	30.8 ± 12.9	–	–	–	–
CC(C)C[C@H](NC(=O)/C=C/c1ccccc1)C(=O)N[C@@H](C[C@@H]1CCNC1=O)C(=O)C(=O)NCc1ccccc1 [11n, (S)-N-((S)-4-(benzylamino)-3,4-dioxo-1-((S)-2-oxopyrrolidin-3-yl)butan-2-yl)-2-cinnamamido-4-methylpentanamide]	–	–	1.08 ± 0.09	3.82 ± 1.21	–	–
COC(=O)CNC(=O)C(=O)[C@H](C[C@@H]1CCNC1=O)NC(=O)[C@H](Cc1ccccc1)NC(=O)/C=C/c1ccccc1 [11e]	11.1 ± 2.64	9.91 ± 1.84	–	–	–	–
O=C(/C=C/c1ccccc1)N[C@@H](CC1CC1)C(=O)N[C@@H](C[C@@H]1CCNC1=O)C(=O)C(=O)NCc1ccccc1 [11s, (S)-N-benzyl-3-((S)-2-cinnamamido-3-cyclopropylpropanamido)-2-oxo-4-((S)-2-oxopyrrolidin-3-yl)butanamide]	–	–	1.37 ± 0.35	4.25 ± 1.4	–	–
O=C(CCc1ccccc1)N[C@@H](Cc1ccccc1)C(=O)N[C@@H](C[C@@H]1CCNC1=O)C(=O)C(=O)NCc1ccccc1 [11g]	4.57 ± 1.04	3.5 ± 1.06	–	–	–	–

— publication doi:10.1101/2020.02.10.936898v1 (biorxiv, 2020)
